Assay results taken from patent US9790201B2, “Piperidine and azepine derivatives as prokineticin receptor modulators” (TAKEDA PHARMACEUTICAL COMPANY LIMITED, priority 2013, dated 2017).

Molecular target: human PKR1 receptors (Homo sapiens (Human), UniProt Q8TCW9)
Test: PKR1 antagonist assay: block of PK1-mediated intracellular calcium release (FLIPR Tetra)
Assay type: cell-based
Conditions: RBL2H3 cells expressing human PKR1; stimulation with PK1 at EC80; calcium fluorescence
Protocol: Prokineticin receptor 1 (PKR1) antagonists may be functionally assessed by measurement of change in intracellular calcium levels induced by Gq mediated increase in inositol triphosphate (IP3) levels. The ability of a compound to block the intracellular release of calcium mediated by PK1 in RBL2H3 cells expressing human PKR1 receptors is determined as a measure of the compound's antagonist activity in vitro.
Approximately 10,000 cells per assay well are seeded in normal culture medium in a 384 well plate (Corning). Twenty-four hours after seeding, the cells are loaded with a calcium sensitive fluorescent dye by replacing the culture medium with assay buffer (1× Hanks buffered saline, 25 mM HEPES, 0.1% w/v fatty acid free BSA (bovine serum albumin), pH 7.4) containing 1 mM probenecid and 1× Calcium 5 Reagent (Molecular Devices). Cells are incubated at 37° C. for 1 hour to allow for dye uptake.
To test for antagonist activity, test compounds at a final concentration range between 0.32 nM-10 μM (diluted in assay buffer) are added to the assay wells and allowed to incubate for 10 minutes prior to stimulation with PK1. After incubation with test compounds the assay plate is placed in a FLIPR Tetra (Molecular Devices) and PK1 (diluted in assay buffer) is added at the determined EC80 concentration (final). Ligand-dependent changes in intracellular calcium levels are determined by measuring changes in fluorescence of the dye at […] following excitation at 485 nm.

Sequence of human PKR1 receptors (Q8TCW9 whole entry): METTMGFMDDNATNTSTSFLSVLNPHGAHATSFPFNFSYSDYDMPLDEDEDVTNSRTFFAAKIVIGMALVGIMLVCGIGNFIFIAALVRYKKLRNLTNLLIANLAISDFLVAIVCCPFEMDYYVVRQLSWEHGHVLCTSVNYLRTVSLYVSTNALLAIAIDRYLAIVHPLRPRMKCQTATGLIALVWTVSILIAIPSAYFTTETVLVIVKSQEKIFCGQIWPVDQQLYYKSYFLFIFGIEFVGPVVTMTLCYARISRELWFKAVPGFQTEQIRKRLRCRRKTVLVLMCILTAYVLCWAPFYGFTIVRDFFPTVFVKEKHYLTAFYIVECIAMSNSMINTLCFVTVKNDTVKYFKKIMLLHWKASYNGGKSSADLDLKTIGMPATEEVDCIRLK

SMILES | IC50 [nM]
CNc1cc(C(=O)N2CCCC(c3ccc(Cl)cc3C)C2)cnn1 (stereo not drawn) [Example 71, 5-{[3-(4-Chloro-2-methylphenyl)piperidin-1-yl]carbonyl}-N-methylpyridazin-3-amine] | 70
CNc1cc(C(=O)N2CCC[C@H](c3ccc(Cl)cc3C)C2)cnn1 [Example 72, 5-{[(3R)-3-(4-Chloro-2-methylphenyl)piperidin-1-yl]carbonyl}-N-methylpyridazin-3-amine] | 30
COc1cc(C(=O)N2CCCC(c3ccc(Cl)cc3C)C2)cnn1 (stereo not drawn) [Example 74, 5-{[3-(4-Chloro-2-methylphenyl)piperidin-1-yl]carbonyl}-3-methoxypyridazine] | 350
CN(C)c1cc(C(=O)N2CCCC(c3ccc(Cl)cc3C(F)(F)F)C2)cnn1 (stereo not drawn) [Example 75, 5-({3-[4-Chloro-2-(trifluoromethyl)phenyl]piperidin-1-yl}carbonyl)-N,N-dimethylpyridazin-3-amine] | 110
CNc1cc(C(=O)N2CCCC(c3ccc(Cl)cc3C(F)(F)F)C2)cnn1 (stereo not drawn) [Example 76, 5-({3-[4-Chloro-2-(trifluoromethyl)phenyl]piperidin-1-yl}carbonyl)-N-methylpyridazin-3-amine] | 80
O=C(c1cnnc(N2CCC2)c1)N1CCCC(c2ccc(Cl)cc2C(F)(F)F)C1 (stereo not drawn) [Example 77, 3-(Azetidin-1-yl)-5-({3-[4-chloro-2-(trifluoromethyl)phenyl]piperidin-1-yl}carbonyl)pyridazine] | 730
CNc1cc(C(=O)N2CCCC(c3ccc(C(F)(F)F)cc3OC)C2)cnn1 (stereo not drawn) [Example 78, 5-({3-[2-Methoxy-4-(trifluoromethyl)phenyl]piperidin-1-yl}carbonyl)-N-methylpyridazin-3-amine] | 3000
CNc1cc(C(=O)N2CCCC(c3ccc(OC)cc3C)C2)cnn1 (stereo not drawn) [Example 79, 5-{[3-(4-Methoxy-2-methylphenyl)piperidin-1-yl]carbonyl}-N-methylpyridazin-3-amine] | 130
COc1ccc(C2CCCN(C(=O)c3cnnc(N(C)C)c3)C2)c(C)c1 (stereo not drawn) [Example 80, 5-{[3-(4-Methoxy-2-methylphenyl)piperidin-1-yl]carbonyl}-N,N-dimethylpyridazin-3-amine] | 160
CNc1cc(C(=O)N2CCCC(c3ccc(OC)cc3C(F)(F)F)C2)cnn1 (stereo not drawn) [Example 81, 5-({3-[4-Methoxy-2-(trifluoromethyl)phenyl]piperidin-1-yl}carbonyl)-N-methylpyridazin-3-amine] | 130
COc1ccc(C2CCCN(C(=O)c3cnnc(N(C)C)c3)C2)c(C(F)(F)F)c1 (stereo not drawn) [Example 82, 5-({3-[4-Methoxy-2-(trifluoromethyl)phenyl]piperidin-1-yl}carbonyl)-N,N-dimethylpyridazin-3-amine] | 210
CCOc1cc(Cl)ccc1C1CCCN(C(=O)c2cnnc(NC)c2)C1 (stereo not drawn) [Example 83, 5-{[3-(4-Chloro-2-ethoxyphenyl)piperidin-1-yl]carbonyl}-N-methylpyridazin-3-amine] | 170
CCOc1cc(Cl)ccc1C1CCCN(C(=O)c2cnnc(N(C)C)c2)C1 (stereo not drawn) [Example 84, 5-{[3-(4-Chloro-2-ethoxyphenyl)piperidin-1-yl]carbonyl}-N,N-dimethylpyridazin-3-amine] | 90
Cc1cc(C(=O)N2CCCC(c3ccc(Cl)cc3C)C2)cnn1 (stereo not drawn) [Example 85, 5-{[3-(4-Chloro-2-methylphenyl)piperidin-1-yl]carbonyl}-3-methylpyridazine] | 1140
Cc1cc(Cl)ccc1C1CCCN(C(=O)c2cn(C)nc2C)C1 (stereo not drawn) [Example 87, 3-(4-Chloro-2-methylphenyl)-1-[(1,3-dimethyl-1H-pyrazol-4-yl)carbonyl]piperidine] | 200
Cc1nn(C)cc1C(=O)N1CCCC(c2ccc(Cl)cc2)C1 (stereo not drawn) [Example 88, 3-(4-Chlorophenyl)-1-[(1,3-dimethyl-1H-pyrazol-4-yl)carbonyl]piperidine] | 1820
Cn1cc(C(=O)N2CCCC(c3ccc(Cl)cc3)C2)cn1 (stereo not drawn) [Example 89, 3-(4-Chlorophenyl)-1-[(1-methyl-1H-pyrazol-4-yl)carbonyl]piperidine] | 1280
CCn1cc(C(=O)N2CCCC(c3ccc(Cl)cc3)C2)cn1 (stereo not drawn) [Example 90, 3-(4-Chlorophenyl)-1-[(1-ethyl-1H-pyrazol-4-yl)carbonyl]piperidine] | 660
CC(C)n1cc(C(=O)N2CCCC(c3ccc(Cl)cc3)C2)cn1 (stereo not drawn) [Example 91, 3-(4-Chlorophenyl)-1-{[1-(propan-2-yl)-1H-pyrazol-4-yl]carbonyl}piperidine] | 960
CCn1cc(C(=O)N2CCCC(c3ccc(Cl)cc3C)C2)cn1 (stereo not drawn) [Example 92, 3-(4-Chloro-2-methylphenyl)-1-[(1-ethyl-1H-pyrazol-4-yl)carbonyl]piperidine] | 110

SMILES | IC50 [nM]
Cc1cc(Cl)ccc1C1CCCN(C(=O)c2cnn(C(C)C)c2)C1 (stereo not drawn) [Example 93, 3-(4-Chloro-2-methylphenyl)-1-{[1-(propan-2-yl)-1H-pyrazol-4-yl]carbonyl}piperidine] | 180
Cc1cc(Cl)ccc1C1CCCN(C(=O)c2cnn(C)c2)C1 (stereo not drawn) [Example 94, 3-(4-Chloro-2-methylphenyl)-1-[(1-methyl-1H-pyrazol-4-yl)carbonyl]piperidine] | 170
Cc1cc(Cl)ccc1C1CCCN(C(=O)c2cnn(C)c2N)C1 (stereo not drawn) [Example 95, 4-{[3-(4-Chloro-2-methylphenyl)piperidin-1-yl]carbonyl}-1-methyl-1H-pyrazol-5-amine] | 150
O=C(c1cn[nH]c1)N1CCCC(c2ccc(Cl)cc2C(F)(F)F)C1 (stereo not drawn) [Example 96, 3-[4-Chloro-2-(trifluoromethyl)phenyl]-1-[(1H-pyrazol-4-yl)carbonyl]piperidine] | 2440
Cn1cc(C(=O)N2CCCC(c3ccc(Cl)cc3C(F)(F)F)C2)cn1 (stereo not drawn) [Example 97, 3-[4-Chloro-2-(trifluoromethyl)phenyl]-1-[(1-methyl-1H-pyrazol-4-yl)carbonyl]piperidine] | 100
CCn1cc(C(=O)N2CCCC(c3ccc(Cl)cc3C(F)(F)F)C2)cn1 (stereo not drawn) [Example 98, 3-[4-Chloro-2-(trifluoromethyl)phenyl]-1-[(1-ethyl-1H-pyrazol-4-yl)carbonyl]piperidine] | 170
CC(C)n1cc(C(=O)N2CCCC(c3ccc(Cl)cc3C(F)(F)F)C2)cn1 (stereo not drawn) [Example 99, 3-[4-Chloro-2-(trifluoromethyl)phenyl]-1-{[1-(propan-2-yl)-1H-pyrazol-4-yl]carbonyl}piperidine] | 330
Cn1cc(C(=O)N2CCCC(c3ccc(Cl)cc3C(F)(F)F)C2)c(N)n1 (stereo not drawn) [Example 100, 4-({3-[4-Chloro-2-(trifluoromethyl)phenyl]piperidin-1-yl}carbonyl)-1-methyl-1H-pyrazol-3-amine] | 540
COc1ccc(C2CCCN(C(=O)c3cn(C)nc3C)C2)c(C)c1 (stereo not drawn) [Example 101, 1-[(1,3-Dimethyl-1H-pyrazol-4-yl)carbonyl]-3-(4-methoxy-2-methylphenyl)piperidine] | 1030
COc1ccc(C2CCCN(C(=O)c3cn(C)nc3N)C2)c(C)c1 (stereo not drawn) [Example 102, 4-{[3-(4-Methoxy-2-methylphenyl)piperidin-1-yl]carbonyl}-1-methyl-1H-pyrazol-3-amine] | 1540
Cc1nn(C)cc1C(=O)N1CCCC(c2ccc(Cl)cc2C(F)(F)F)C1 (stereo not drawn) [Example 103, 3-[4-Chloro-2-(trifluoromethyl)phenyl]-1-[(1,3-dimethyl-1H-pyrazol-4-yl)carbonyl]piperidine] | 490
CN(C)c1cc(C(=O)N2C=C(c3ccc(Cl)cc3)CCC2)ccn1 [Example 104, 4-{[5-(4-Chlorophenyl)-1,2,3,4-tetrahydropyridin-1-yl]carbonyl}-N,N-dimethylpyridin-2-amine] | 420
Cc1cc(Cl)ccc1C1=CN(C(=O)c2ccnc(N(C)C)c2)CCC1 [Example 105, 4-{[5-(4-Chloro-2-methylphenyl)-1,2,3,4-tetrahydropyridin-1-yl]carbonyl}-N,N-dimethylpyridin-2-amine] | 270
CN(C)c1cc(C(=O)N2C=C(c3ccc(Cl)cc3Cl)CCC2)ccn1 [Example 106, 4-{[5-(2,4-Dichlorophenyl)-1,2,3,4-tetrahydropyridin-1-yl]carbonyl}-N,N-dimethylpyridin-2-amine] | 1230
CN(C)c1cc(C(=O)N2CCCCC(c3ccccc3)C2)ccn1 (stereo not drawn) [Example 107, N,N-Dimethyl-4-[(3-phenylazepan-1-yl)carbonyl]pyridin-2-amine] | 2970
CN(C)c1cc(C(=O)N2CCCCC(c3ccc(Cl)cc3)C2)ccn1 (stereo not drawn) [Example 108, 4-{[3-(4-Chlorophenyl)azepan-1-yl]carbonyl}-N,N-dimethylpyridin-2-amine] | 3230
COc1ccc(C2CCCCN(C(=O)c3ccnc(N(C)C)c3)C2)cc1 (stereo not drawn) [Example 109, 4-{[3-(4-Methoxyphenyl)azepan-1-yl]carbonyl}-N,N-dimethylpyridin-2-amine] | 960
CNc1cc(C(=O)N2CCCCC(c3ccc(OC)cc3)C2)ccn1 (stereo not drawn) [Example 110, 4-{[3-(4-Methoxyphenyl)azepan-1-yl]carbonyl}-N-methylpyridin-2-amine] | 450
CNc1cc(C(=O)N2CCCCC(c3ccc(Cl)cc3)C2)ccn1 (stereo not drawn) [Example 111, 4-{[3-(4-Chlorophenyl)azepan-1-yl]carbonyl}-N-methylpyridin-2-amine] | 430
